Assay [1] has as its system B16. Nature of the assay: Cytotoxicity against mouse B16 cells by MTT assay. Type of assay: functional, cell-based.
A further assay deals with HeLa. Nature of the assay: Cytotoxicity against human HeLa cells by MTT assay. In kind it is functional, cell-based.
Assay [2] deals with L1210. Nature of the assay: Cytotoxicity against mouse L1210 cells by MTT assay. Type of assay: functional, cell-based. For orientation: Tetrazolium dyes change colour on reduction, which living cells bring about.
In assay [3] the test system is L1210. As to the kind of experiment: Ratio of IC50 for mouse L1210 cells to IC50 for mouse L1210 cells in presence of […]. Type of assay: functional.
In assay [4] the test system is B16. As to the kind of experiment: Ratio of IC50 for mouse B16 cells in presence of SPD to IC50 for mouse B16 cells. In kind it is functional.
For assay [5], the system named is B16. Nature of the assay: Cell cycle arrest in B16 cells by accumulation at G1 phase at 0.1 uM after 24 hrs. In kind it is functional, Mus musculus.
Assay [6] concerns B16. As to the kind of experiment: Cell cycle arrest in B16 cells by accumulation at G2 phase at 0.1 uM after 24 hrs. Type of assay: functional, Mus musculus.
Assay [7] deals with B16. Nature of the assay: Cell cycle arrest in B16 cells by accumulation at S phase at 0.1 uM after 24 hrs. In kind it is functional, Mus musculus.
Assay [8] relates to B16. As to the kind of experiment: Induction of apoptosis in B16 cells at 0.1 uM after 24 hrs. Type of assay: functional, Mus musculus.
Assay [9] relates to B16. Nature of the assay: Cell cycle arrest in B16 cells by accumulation at G1 phase at 1 uM after 24 hrs. Type of assay: functional, Mus musculus.
Assay [10] deals with B16. As to the kind of experiment: Cell cycle arrest in B16 cells by accumulation at G2 phase at 1 uM after 24 hrs. Type of assay: functional, Mus musculus.
The test system of assay [11] is B16. As to the kind of experiment: Cell cycle arrest in B16 cells by accumulation at S phase at 1 uM after 24 hrs. Type of assay: functional, Mus musculus.
For assay [12], the system named is B16. As to the kind of experiment: Induction of apoptosis in B16 cells at 1 uM after 24 hrs. In kind it is functional, Mus musculus.
Assay [13] has as its system FL5.12. Nature of the assay: Induction of apoptosis in BALB/c mouse FL5.12A pro-B cells in the presence of 0.1 ng/mL IL3. Type of assay: functional.
Assay [14] has as its system FL5.12. Nature of the assay: Induction of apoptosis in BALB/c mouse FL5.12A pro-B cells. In kind it is functional.
In assay [15] the test system is FL5.12. Nature of the assay: Induction of apoptosis in BALB/c mouse FL5.12A pro-B cells in the presence of 2 ng/mL IL3. Type of assay: functional.

Turning to `CCCCNCc1ccc2cc(OC)ccc2c1`, the IC50 (usually the concentration at which inhibition is half-maximal) in the assay with B16 [1] was 15 µM; in the assay with HeLa it was 12.5 µM.
`CCCCNCc1ccc(-c2ccccc2)cc1`: the IC50 in the assay with B16 [1] is 10.8 µM; in the assay with HeLa it was 10.9 µM.
Turning to `Cl.NCCCCNCCCCNCc1ccc2ccccc2c1`, the IC50 worked out at 16.9 µM in the assay with L1210 [2], 1.66 µM in the assay with B16 [1] and 1.9 µM in the assay with HeLa. Further, the “Ratio IC50” value in the assay with L1210 [3] is on record as 2.08; with B16 [4], 3.8.
Consider `Cl.NCCCCNCCCCNCc1ccc(-c2ccccc2)cc1`, for which the IC50 came out at 9.98 µM in the assay on L1210 [2], 1.22 µM in the assay on B16 [1] and 3.61 µM in the assay with HeLa. The figures for the “Ratio IC50” value in the assay with L1210 [3] and in the assay with B16 [4] were 2.05 and 2.4, respectively. In addition, the Activity in the assay with B16 [5] stood at 49.18%; with B16 [6] it was 10.45%; with B16 [7] it was 40.37%; in the assay with B16 [8] it was 17.35%; in the assay on B16 [9], 39.13%; in the assay with B16 [10] it was 0.04%. Also, the Activity came out at 68.83% in the assay with B16 [11] and 42.47% in the assay on B16 [12].
In the case of `Cl.NCCCCNCCCCNCC1CCCc2ccccc21` (stereo not given), the IC50 with L1210 [2] worked out at 14.8 µM; with B16 [1], 6.96 µM. In addition, the entries for the “Ratio IC50” value in the assay with L1210 [3] and in the assay on B16 [4] were 1.63 and 1.7, respectively.
Take `Cl.c1ccc2c(CNCCCCNCCCCN3CCNCC3)cccc2c1`: the IC50 was more than 50 µM with L1210 [2], 5.46 µM in the assay with B16 [1] and 3.6 µM with HeLa. In addition, the “Ratio IC50” value was more than 1 in the assay with L1210 [3] and 2.3 in the assay on B16 [4].
The corresponding values for `Cl.c1ccc2cc(CNCCCCNCCCCN3CCNCC3)ccc2c1` are 35.8 µM, 2.89 µM, 3.7 µM, 1.53 and 9.
As for `COc1ccc2cc(CNCCCCNCCCCN3CCNCC3)ccc2c1.Cl`, the IC50 was 15.1 µM in the assay on L1210 [2], more than 50 µM in the assay on B16 [1] and 11.3 µM in the assay with HeLa. Also, in the assay with L1210 [3], the “Ratio IC50” value worked out at 1.76.
Regarding `Cl.c1ccc(-c2ccc(CNCCCCNCCCCN3CCNCC3)cc2)cc1`, the IC50 is 20.3 µM in the assay with L1210 [2], more than 50 µM in the assay on B16 [1] and 26.8 µM in the assay with HeLa. The “Ratio IC50” value with L1210 [3] is reported as 2.71.
Turning to `Cl.NCCCCNCCCCNCc1cccc2ccccc12`, the IC50 with L1210 [2] is 8.04 µM; with B16 [1], 2.33 µM; in the assay with HeLa, 1.38 µM. In addition, the “Ratio IC50” value worked out at 1.58 with L1210 [3] and 2.5 in the assay on B16 [4].
On the same counts, the results for `Cl.c1ccc2c(CNCCCCNCCCCN3CCNCC3)c3ccccc3cc2c1` are more than 50 µM, 6.07 µM, 9.58 µM, more than 2.5 and 2.
As for `Cl.NCCCCNCCCCNCc1c2ccccc2cc2ccccc12`, the values for the IC50 in the assay with L1210 [2], in the assay with B16 [1] and in the assay on HeLa were 4.8 µM, 0.31 µM and 1.1 µM, respectively. Moreover, the figures for the “Ratio IC50” value in the assay on L1210 [3] and with B16 [4] were 1.33 and 6.6, respectively. Besides, the Activity in the assay with B16 [5] was 77.99%; with B16 [6], 10.72%; in the assay on B16 [7], 11.29%; with B16 [8] it was 12.49%; in the assay on B16 [9] it was 80.19%; with B16 [10], 10.1%. For the same molecule, the values for the Activity in the assay with B16 [11] and with B16 [12] were 10.1% and 37.26%, respectively.
For the molecule `COc1ccc2cc(CNCCCCNCCCCN)ccc2c1.Cl`, the IC50 in the assay on L1210 [2] was 15.1 µM; in the assay on B16 [1] it was 4.88 µM; with HeLa, 1.2 µM. Besides, the “Ratio IC50” value turned out to be 2.69 in the assay with L1210 [3] and 3.6 in the assay with B16 [4].
`N=C(N)NN` [PIMAGEDINE]: the Activity was 3% in the assay on FL5.12 [13], 80% with FL5.12 [14] and 5% in the assay on FL5.12 [15].
